The OligoGym collection
Where “and” joins values, the source holds several entries; their conditions need not be identical. Equal values may be shown once. After the bases stand the sugars from the 5' end (letter, count) and the backbone: PS all phosphorothioate, else s phosphorothioate and o phosphodiester by linkage. Methylation of C is not given here. e = 2'-O-(2-methoxyethyl) (MOE); k = constrained ethyl (cEt); d = 2'-deoxy (DNA)

Target: IRF4
Details: ASO

| Sequence | target mRNA inhibition (SK-MEL-28, 4 µM) [%] | other results |
| --- | --- | --- |
| GCCCAAAGGCTCCCGA (sugars k3 d10 k3, PS) | 11 |  |
| GCCCAAGCCTTGAAGA (sugars k3 d10 k3, PS) | 15 |  |
| GCCCAATACATATCCA (sugars k3 d10 k3, PS) | 58 |  |
| GCCCAGCAAGAGGCAC (sugars k3 d10 k3, PS) | 7 |  |
| GCCCAGCTAGCGCGCA (sugars k3 d10 k3, PS) | 29 |  |
| GCCCGCAAAAGAAACG (sugars k3 d10 k3, PS) |  | target mRNA inhibition (MM.1R, 1 µM): 2% |
| GCCGAAGCATTTTATC (sugars k3 d10 k3, PS) | 29 |  |
| GCCGAGATATAAATAG (sugars k3 d10 k3, PS) | 40 |  |
| GCCGCCCTCCAGGTTC (sugars k3 d10 k3, PS) | 49 |  |
| GCCGGCCTGGCCCTTC (sugars k3 d10 k3, PS) | -14 |  |
| GCCTAGGACTAAGGAC (sugars k3 d10 k3, PS) | 33 |  |
| GCCTTGGACGGCCCCG (sugars k3 d10 k3, PS) | 23 |  |
| GCGCAAAACCCCTCAA (sugars k3 d10 k3, PS) | 22 |  |
| GCGCATAGGTCCTTCA (sugars k3 d10 k3, PS) | 63 |  |
| GCGCATTTCAGTAAAT (sugars k3 d10 k3, PS) | 33 |  |
| GCGCGGACGCACGGAG (sugars k3 d10 k3, PS) | 2 |  |
| GCGCTCTCTCTGTAAC (sugars k3 d10 k3, PS) |  | target mRNA inhibition (MM.1R, 1 µM): -7% |
| GCGGAGCATCAACAAA (sugars k3 d10 k3, PS) | 30 |  |
| GCGGATAGATCTGTGG (sugars k3 d10 k3, PS) | 55 |  |
| GCTAACTGGCCTCAAA (sugars k3 d10 k3, PS) | 9 |  |
| GCTACGCAATCTTCTG (sugars k3 d10 k3, PS) | 58 |  |
| GCTAGATAGCATTCTT (sugars k3 d10 k3, PS) | 56 |  |
| GCTCACTAAGCTTGAT (sugars k3 d10 k3, PS) | 56 |  |
| GCTCAGCGCAGATGGG (sugars k3 d10 k3, PS) | -2 |  |
| GCTCATCCCGTCCAGC (sugars k3 d10 k3, PS) | 15 |  |
| GCTCATGGCTGATAAT (sugars k3 d10 k3, PS) |  | target mRNA inhibition (MM.1R, 1 µM): -17% |

| Sequence | target mRNA inhibition (SK-MEL-28, 4 µM) [%] | other results |
| --- | --- | --- |
| GCTCCCGACACGCGCC (sugars k3 d10 k3, PS) |  | target mRNA inhibition (MM.1R, 1 µM): 3% and 19% |
| GCTGAACTGTGTAATG (sugars k3 d10 k3, PS) | 58 |  |
| GCTGAATGCTCTCCAT (sugars k3 d10 k3, PS) | 52 |  |
| GCTGAGAGTTCAGGTC (sugars k3 d10 k3, PS) |  | target mRNA inhibition (MM.1R, 1 µM): 7% |
| GCTGATAATTAATCTG (sugars k3 d10 k3, PS) |  | target mRNA inhibition (MM.1R, 1 µM): -9% |
| GCTGATGGAGAAACGA (sugars k3 d10 k3, PS) | 7 |  |
| GCTGTCGATCTGGTCG (sugars k3 d10 k3, PS) | 9 |  |
| GCTGTCGATCTGGTCG (sugars k4 d8 k4, PS) | 6 |  |
| GCTTCCCGTTGCCGCA (sugars k3 d10 k3, PS) | 18 |  |
| GGAAAGAGGCACCCTC (sugars k3 d10 k3, PS) | 28 |  |
| GGAAGCACTGGCATTG (sugars k3 d10 k3, PS) | 49 |  |
| GGAAGTTTACACTGGA (sugars k3 d10 k3, PS) | 85 | target mRNA inhibition (MM.1R, 0.0625 µM): 41% and 42%; target mRNA inhibition (MM.1R, 0.25 µM): 66% and 68%; target mRNA inhibition (MM.1R, 0.666 µM): 79% and 94%; target mRNA inhibition (MM.1R, 2 µM): 95% and 98%; target mRNA inhibition (MM.1R, 4 µM): 91% |
| GGAAGTTTACACTGGA (sugars kddddddddddkekek, PS) |  | target mRNA inhibition (MM.1R, 1 µM): 33% |
| GGACAGCCAAACAAAC (sugars k3 d10 k3, PS) | 7 |  |
| GGACCTGGTCCAGGTT (sugars k3 d10 k3, PS) | -2 |  |
| GGACCTGGTCCAGGTT (sugars k4 d8 k4, PS) | -28 |  |
| GGACGAACGCGCAAAA (sugars k3 d10 k3, PS) | 35 |  |
| GGAGAAACGAGCCAGT (sugars k3 d10 k3, PS) | 47 |  |
| GGAGAAGTCCCGTGGA (sugars k3 d10 k3, PS) | 59 |  |
| GGAGAATTAAGAAGAC (sugars k3 d10 k3, PS) | 32 |  |
| GGAGATCCGGCAGCCC (sugars k3 d10 k3, PS) | 23 |  |
| GGAGCTAGTTTTATGT (sugars k3 d10 k3, PS) |  | target mRNA inhibition (MM.1R, 1 µM): -28% |
| GGAGTACCCGCAGAGA (sugars k3 d10 k3, PS) | 25 |  |
| GGATGCCACCATCCCA (sugars k3 d10 k3, PS) | -5 |  |
| GGATTGATGTGATAGC (sugars k3 d10 k3, PS) |  | target mRNA inhibition (MM.1R, 0.0625 µM): 7% and 24%; target mRNA inhibition (MM.1R, 0.25 µM): 24% and 20%; target mRNA inhibition (MM.1R, 1 µM): 59% and 60%; target mRNA inhibition (MM.1R, 4 µM): 88% |
| GGCAACCATTTTCACA (sugars k3 d10 k3, PS) | -17 |  |

| Sequence | target mRNA inhibition (SK-MEL-28, 4 µM) [%] | other results |
| --- | --- | --- |
| GGCAACCTGCATTTGC (sugars k3 d10 k3, PS) | -13 |  |
| GGCAAGTTCTGCTGTC (sugars k3 d10 k3, PS) | 58 |  |
| GGCACAAGCATAAAAG (sugars k3 d10 k3, PS) | 1 |  |
| GGCACAGACATACCTA (sugars k3 d10 k3, PS) | 48 |  |
| GGCACAGCCGTCCGCC (sugars k3 d10 k3, PS) | 11 |  |
| GGCACATCAATGTTTT (sugars kkdddddddddkdkdk, PS) |  | target mRNA inhibition (MM.1R, 1 µM): 26% and 16% |
| GGCACATCAATGTTTT (sugars kkdddddddddkekek, PS) |  | target mRNA inhibition (MM.1R, 1 µM): 23% and 19% |
| GGCACTACTTCCAAAA (sugars k3 d10 k3, PS) | 31 |  |
| GGCAGACCTTATGCTT (sugars k3 d10 k3, PS) | 21 |  |
| GGCAGCACCGTGTGGA (sugars k3 d10 k3, PS) | 53 |  |
| GGCAGTTCTTTCAGCA (sugars k3 d10 k3, PS) | 37 |  |
| GGCATCATGTAGTTGT (sugars k3 d10 k3, PS) |  | target mRNA inhibition (MM.1R, 1 µM): -1% |
| GGCCACCGACTCTTTT (sugars k3 d10 k3, PS) | 13 |  |
| GGCCGCCGTGAGCTTG (sugars k3 d10 k3, PS) | 3 |  |
| GGCCGGCCCGGGCGCA (sugars k3 d10 k3, PS) | 1 |  |
| GGCCTGGAGGTGACGC (sugars k3 d10 k3, PS) | 41 |  |
| GGCCTTAATGGTGATT (sugars k3 d10 k3, PS) |  | target mRNA inhibition (MM.1R, 1 µM): -16% |
| GGCCTTGGAGCCCAAA (sugars k3 d10 k3, PS) | 20 |  |
| GGCCTTTACAAAGAAC (sugars k3 d10 k3, PS) | -19 |  |
| GGCGCATAGGTCCTTC (sugars k3 d10 k3, PS) |  | target mRNA inhibition (MM.1R, 1 µM): -7% |
| GGCGGATAGATCTGTG (sugars k3 d10 k3, PS) | 51 |  |
| GGCTAATGAAATGTCA (sugars k3 d10 k3, PS) | 64 |  |
| GGCTCATGGACATCTG (sugars k3 d10 k3, PS) | 36 |  |
| GGCTCTGCAAACGACA (sugars k3 d10 k3, PS) |  | target mRNA inhibition (MM.1R, 1 µM): 0% |
| GGCTGAAACGGTCAGC (sugars k3 d10 k3, PS) |  | target mRNA inhibition (MM.1R, 1 µM): -27% |
| GGCTGATAATTAATCT (sugars k3 d10 k3, PS) | 47 |  |
